Entries after “also recorded” stand apart in the source; their conditions may differ.
Test system: serum antibodies generated against the Helicobacter pylori serotype O:6 purified polysaccharide
Assay: Oligosaccharide chip: binding of antiserum antibodies to spotted synthetic oligosaccharides
Parameters: species or system rabbit
Conditions: spotting concentration 1 mM; for fluorescence intensity on oligosaccharide chip: FIG. 6A/6B, serum diluted 1:50; for recognition and binding by antibodies in the antiserum: oligosaccharide fixed on chip via amino linker, antiserum against H. pylori serotype O6 LPS, anti-rabbit IgG FITC-labeled secondary antibody
Protocol: FIG. 6A: Detection of the antibody binding activity of the synthetic oligosaccharides in the oligosaccharide chip using an anti-rabbit IgG FITC-labeled secondary antibody. The chip spotting mode is shown as follows: • 1: trisaccharide 1, spotting concentration is 1 mM; • 2: tetrasaccharide 2, spotting concentration is 1 mM; • 3: heptoglycan-chain-containing pentasaccharide 3, spotting concentration is 1 mM; • 4: heptoglycan-chain-containing pentasaccharide 4, spotting concentration is 1 mM; • 5: […] containing only Lewis O-antigen, spotting concentration is 1 mM; • 6: heptoglycan-chain-containing octasaccharide 6, spotting concentration is 1 mM; • 7: tridecasaccharide 7 containing Lewis O-antigen, spotting concentration is 1 mM; and • 8: Helicobacter pylori serotype O6 lipopolysaccharide, spotting concentration is 1 mg/mL.
FIG. 6B: quantitative measurements of average fluorescence intensity of spots 1-7 in FIG. 6A. Error bars are standard deviations of 4 different points from two different detection areas.
A chemically synthesized oligosaccharide antigen was fixed onto the chip surface through an amino linker, and the antiserum was incubated with the oligosaccharide chip and then incubated with the secondary antibody.
Under a chip scanner, the fluorescence of the binding of the oligosaccharide fragment and the antibody can be obtained. In this way, the binding strength of the oligosaccharide fragment to the antibody in the serum can be quantified, the amount of the chemically synthesized oligosaccharide and antiserum can be saved, and the result can be reflected clearly.
The experimental procedure is as follows: • (1) Activated amino slides were spotted with a biochip spotter. After the completion of the spotting, incubation was carried out overnight at a temperature of 26° C. and a humidity of 55%. • (2) Then the slides were immersed in a solution B (50 nM Na2HPO4, 100 nM ethanolamine in water) at 50° C. for 1 hour. The slides were washed with ultrapure water 3 times, and the residual water was removed by centrifugation. • (3) 3% BSA (w/v) in PBS was used for blocking at 4° C. overnight. The slides were washed with PBST (PBS containing 0.1% tween) once, washed with PBS twice, and centrifugally dried. • (4) The slides were placed into a 16-well incubator (ProPlate). 120 μL of mouse serum sample diluted 1:50 in 1% BSA (w/v) in PBS was added to each well, and incubated in a 37° C. wet box in the dark for 1 hour. The sample was removed, and the incubator was washed with 150 μL of PBST 3 times. • (5) A secondary antibody diluted 1:400 in 1% BSA (w/v) in PBS was added, and incubated in a wet box at 37° C. in the dark for 45 minutes. The secondary antibody solution was removed, and the incubator was washed with 150 μL of PBST 3 times. The 16-well incubator was removed, washed with ultrapure water, and washed with ultrapure water for 15 minutes. The residual water was removed by centrifugation. Scanning was carried out using the chip scanner. Immunogenicity Detection of Helicobacter pylori Serotype O:6 Synthetic Oligosaccharide Fragment:
NHS slides (SurModics, DN01-0025) were spotted with synthetic oligosaccharide compounds 1 to 7 using a biochip spotter (Jiangsu RayMe Biotechnology Co., Ltd.). After the completion of the spotting, incubation was carried out overnight at a temperature of 26° C. and a humidity of 55%. Then the slides were immersed in a solution B (50 nM Na2HPO4, 100 nM ethanolamine in water) at 50° C. for 1 hour. The slides were washed with ultrapure water 3 times, and the residual water was removed by centrifugation. 3% BSA (w/v) in PBS was used for blocking at 4° C. overnight. The slides were washed with PBST (PBS containing 0.1% tween) once, washed with PBS twice, and centrifugally dried. The slides were placed into a 16-well incubator (ProPlate). 120 μL of mouse serum sample diluted 1:50 in 1% BSA (w/v) in PBS was added to each well, and incubated in a 37° C. wet box in the dark for 1 hour. […]

| Compound | fluorescence intensity on oligosaccharide chip | recognition and binding by antibodies in the antiserum |
| --- | --- | --- |
| NCCCO[C@H]1OC([C@H](O)CO)[C@@H](O)[C@H](O)C1O[C@H]1OC([C@H](O)CO)[C@@H](O)[C@H](O)C1O[C@H]1OC([C@@H](CO)O[C@H]2OC([C@H](O)CO)[C@@H](O)[C@H](O[C@H]3OC([C@H](O)CO)[C@@H](O)C(O)C3O)C2O)[C@@H](O)[C@H](O)C1O (stereo partly drawn) [Compound 3] | higher fluorescence intensity | well recognized; also recorded: obvious and strong recognition and binding |
| NCCCO[C@H]1OC([C@H](O)CO)[C@@H](O)[C@H](O[C@H]2O[C@@H]([C@H](O)CO)[C@@H](O)C(O[C@H]3OC([C@H](O)CO)[C@@H](O)[C@H](O[C@H]4O[C@@H]([C@H](O)CO)[C@@H](O)C(O[C@H]5OC([C@H](O)CO)[C@@H](O)[C@H](O)C5O)C4O)C3O)C2O)C1O (stereo partly drawn) [Compound 4] | higher fluorescence intensity | well recognized; also recorded: obvious and strong recognition and binding |
| NCCCO[C@H]1OC([C@H](O)CO)[C@@H](O)[C@H](O)C1O[C@H]1OC([C@H](O)CO)[C@@H](O)[C@H](O)C1O[C@H]1OC([C@@H](CO)O[C@H]2OC([C@H](O)CO)[C@@H](O)[C@H](O[C@H]3O[C@@H]([C@H](O)CO)[C@@H](O)C(O[C@H]4OC([C@H](O)CO)[C@@H](O)[C@H](O[C@H]5O[C@@H]([C@H](O)CO)[C@@H](O)C(O[C@H]6OC([C@H](O)CO)[C@@H](O)[C@H](O)C6O)C5O)C4O)C3O)C2O)[C@@H](O)[C@H](O)C1O (stereo partly drawn) [Compound 6] | higher fluorescence intensity | well recognized; also recorded: obvious and strong recognition and binding |
